Data taken from the Kinase Knowledgebase extract (Sharma et al. 2016).

Each compound was assayed against MAPK14 (human) (UniProt Q16539) (assay: Inhibition of MAPK14 Kinase Activity by PHAS-I Assay). Settings: not given.
MAPK14 (human), sequence (Q16539 whole entry, looked up): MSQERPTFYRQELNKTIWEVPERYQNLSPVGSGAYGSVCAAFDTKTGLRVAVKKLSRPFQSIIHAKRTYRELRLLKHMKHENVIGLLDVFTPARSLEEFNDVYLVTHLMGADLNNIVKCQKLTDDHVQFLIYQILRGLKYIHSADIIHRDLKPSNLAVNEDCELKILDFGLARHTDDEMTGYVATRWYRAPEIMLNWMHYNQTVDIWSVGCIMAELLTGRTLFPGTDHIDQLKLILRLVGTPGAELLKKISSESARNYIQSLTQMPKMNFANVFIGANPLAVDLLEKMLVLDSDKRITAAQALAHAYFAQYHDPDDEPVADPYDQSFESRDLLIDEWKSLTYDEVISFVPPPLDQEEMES

SMILES	IC50 [nM]
COc1ccccc1C(=O)N1CCC(c2[nH]nc(-c3ccc(F)cc3)c2-c2ccncc2)CC1	< 100
COc1ccc(-c2[nH]nc(C)c2-c2ccncc2)cc1Cl	100
N#CCNc1[nH]nc(-c2ccc(F)cc2)c1-c1ccncc1	17
O=C(Nc1ccccc1F)N[C@H](Cc1ccccc1)c1[nH]nc(-c2ccc(F)cc2)c1-c1ccncc1	21000
COCC(=O)N[C@H]1CC[C@@H](c2[nH]nc(-c3ccc(Cl)cc3)c2-c2ccncc2)CC1	77
O=C(NCc1[nH]nc(-c2ccc(F)cc2)c1-c1ccncc1)c1cc(Cl)cc(Cl)c1	2670
O=C(Nc1ccccc1)N[C@@H](Cc1ccccc1)c1[nH]nc(-c2ccc(F)cc2)c1-c1ccncc1	2600
CCCc1n[nH]c(-c2cccc([N+](=O)[O-])c2)c1-c1ccncc1	12100
CC(=O)N[C@@H](C)c1[nH]nc(-c2ccc(F)cc2)c1-c1ccncc1	460
CC(C)(N)Cc1[nH]nc(-c2ccc(F)cc2)c1-c1ccncc1	110
CNCCCNC(=O)CSc1[nH]nc(-c2ccc(Cl)cc2)c1-c1ccncc1	1660

Same assay, conditions: concentration not given here

SMILES	inhibition [%]
O=C(NCCCc1[nH]nc(-c2ccc(F)cc2)c1-c1ccncc1)NCCc1ccccc1	82
CC(C)C(=O)NCCc1[nH]nc(-c2ccc(F)cc2)c1-c1ccncc1	75
Cc1c(-c2ccncc2)c(-c2ccc(F)cc2)nn1CC(=O)NC1CC1	75
COC(=O)[C@H](CC(C)C)NC(=O)Cn1nc(-c2ccc(F)cc2)c(-c2ccncc2)c1C	47
Cc1c(-c2ccncc2)c(-c2ccc(F)cc2)nn1CC(=O)Nc1ccccc1F	86
Cc1c(-c2ccncc2)c(-c2ccc(F)cc2)nn1CC(=O)Nc1cccc(F)c1	92
Cc1c(-c2ccncc2)c(-c2ccc(F)cc2)nn1CC(=O)NC1CCCCC1	49
CCOC(=O)N1CCC(NC(=O)Cn2nc(-c3ccc(F)cc3)c(-c3ccncc3)c2C)CC1	72
COc1ccc(NC(=O)NCCCc2[nH]nc(-c3ccc(F)cc3)c2-c2ccncc2)c(OC)c1	83
Cc1c(-c2ccncc2)c(-c2ccc(F)cc2)nn1CC(=O)NC1CCC1	81
Cc1c(-c2ccncc2)c(-c2ccc(F)cc2)nn1CC(=O)NCC(=O)Nc1ccccc1	86
Cc1c(-c2ccncc2)c(-c2ccc(F)cc2)nn1CC(=O)N(C)CCc1ccccc1	32
Cc1c(-c2ccncc2)c(-c2ccc(F)cc2)nn1CC(=O)Nc1ccc(OCc2ccccc2)cc1	82
O=C(NCCCc1[nH]nc(-c2ccc(F)cc2)c1-c1ccncc1)c1ccccc1I	66
O=C(NCCCc1[nH]nc(-c2ccc(F)cc2)c1-c1ccncc1)c1ccno1	80
CC(C)(C)C(=O)NCCCc1[nH]nc(-c2ccc(F)cc2)c1-c1ccncc1	87
Cc1c(-c2ccncc2)c(-c2ccc(F)cc2)nn1CC(=O)Nc1ccc(Cl)cc1	88
COc1ccccc1C(=O)NCCCc1[nH]nc(-c2ccc(F)cc2)c1-c1ccncc1	68
Cc1c(-c2ccncc2)c(-c2ccc(F)cc2)nn1CC(=O)Nc1ccccc1Cl	90
Cc1c(-c2ccncc2)c(-c2ccc(F)cc2)nn1CC(=O)NC1CCCCC1C1CCCCC1 (stereo unspecified)	45
Cc1c(-c2ccncc2)c(-c2ccc(F)cc2)nn1CC(=O)N(CCc1ccccc1)CCc1ccccn1	43
CCOC(=O)NCCCc1[nH]nc(-c2ccc(F)cc2)c1-c1ccncc1	94

SMILES	inhibition [%]
COc1cccc(NC(=O)NCCc2[nH]nc(-c3ccc(F)cc3)c2-c2ccncc2)c1	68
O=C(NCCCc1[nH]nc(-c2ccc(F)cc2)c1-c1ccncc1)N1CCCC1	86
CN(C)C(=O)NCCCc1[nH]nc(-c2ccc(F)cc2)c1-c1ccncc1	90
Cc1c(-c2ccncc2)c(-c2ccc(F)cc2)nn1CC(=O)Nc1ccccc1	85
Cc1c(-c2ccncc2)c(-c2ccc(F)cc2)nn1CC(=O)NC(C)CCc1ccccc1 (stereo unspecified)	35
CCN(CC)CC(C)NC(=O)Cn1nc(-c2ccc(F)cc2)c(-c2ccncc2)c1C (stereo unspecified)	46
Cc1c(-c2ccncc2)c(-c2ccc(F)cc2)nn1CC(=O)N(C)CC(N)=O	60
Cc1c(-c2ccncc2)c(-c2ccc(F)cc2)nn1CC(=O)NC1CCC(C(C)(C)C)CC1 (stereo unspecified)	38
Cc1c(-c2ccncc2)c(-c2ccc(F)cc2)nn1CC(=O)Nc1ccccc1Oc1ccc(Cl)cc1	86
Cc1c(-c2ccncc2)c(-c2ccc(F)cc2)nn1CC(=O)Nc1ccc(C2CCCCC2)cc1	87
Cc1c(-c2ccncc2)c(-c2ccc(F)cc2)nn1CC(=O)Nc1cc(C(F)(F)F)cc(C(F)(F)F)c1	79
CCCCC(C)NC(=O)Cn1nc(-c2ccc(F)cc2)c(-c2ccncc2)c1C (stereo unspecified)	75
O=C(NCCCc1[nH]nc(-c2ccc(F)cc2)c1-c1ccncc1)c1ccc(F)c(F)c1F	80
O=C(NCc1[nH]nc(-c2ccc(F)cc2)c1-c1ccncc1)c1cccc2ccccc12	91
Cc1c(-c2ccncc2)c(-c2ccc(F)cc2)nn1CC(=O)N1CCSC1	63
COC(=O)[C@H](COCc1ccccc1)NC(=O)Cn1nc(-c2ccc(F)cc2)c(-c2ccncc2)c1C	76
O=C(NCc1[nH]nc(-c2ccc(F)cc2)c1-c1ccncc1)c1cc(Cl)ccc1F	73
O=S(=O)(NCCCc1[nH]nc(-c2ccc(F)cc2)c1-c1ccncc1)c1ccccc1F	77
CC(C)COC(=O)NCCCc1[nH]nc(-c2ccc(F)cc2)c1-c1ccncc1	76
CCOC(=O)CC(C)NC(=O)Cn1nc(-c2ccc(F)cc2)c(-c2ccncc2)c1C (stereo unspecified)	43
O=C(NCCCc1[nH]nc(-c2ccc(F)cc2)c1-c1ccncc1)Nc1ccc(F)cc1	88
CCc1cccc(CC)c1NC(=O)Cn1nc(-c2ccc(F)cc2)c(-c2ccncc2)c1C	70

SMILES	inhibition [%]
CCOC(=O)C[C@H](NC(=O)Cn1nc(-c2ccc(F)cc2)c(-c2ccncc2)c1C)C(=O)OCC	37
COc1ccc(NC(=O)NCCCc2[nH]nc(-c3ccc(F)cc3)c2-c2ccncc2)cc1	82
COc1ccc(S(=O)(=O)NCCCc2[nH]nc(-c3ccc(F)cc3)c2-c2ccncc2)cc1OC	74
CC(C)COC(=O)NCCc1[nH]nc(-c2ccc(F)cc2)c1-c1ccncc1	75
O=C(NCCCc1[nH]nc(-c2ccc(F)cc2)c1-c1ccncc1)N1CCOCC1	82
Cc1c(-c2ccncc2)c(-c2ccc(F)cc2)nn1CC(=O)N(CCC#N)CC1CCCO1 (stereo unspecified)	58
O=C(NCCCc1[nH]nc(-c2ccc(F)cc2)c1-c1ccncc1)c1cccnc1	72
CC(C)OC(=O)NCCCc1[nH]nc(-c2ccc(F)cc2)c1-c1ccncc1	89
Cc1c(-c2ccncc2)c(-c2ccc(F)cc2)nn1CC(=O)NC(C)c1ccc(Br)cc1 (stereo unspecified)	71
COc1ccc2nc(NC(=O)Cn3nc(-c4ccc(F)cc4)c(-c4ccncc4)c3C)sc2c1	86
NC(=O)NCCCc1[nH]nc(-c2ccc(F)cc2)c1-c1ccncc1	90
CC(C)C(=O)NCCCc1[nH]nc(-c2ccc(F)cc2)c1-c1ccncc1	79
Cc1c(-c2ccncc2)c(-c2ccc(F)cc2)nn1CC(=O)Nc1cccc(Br)c1	88
CCOC(=O)c1cc(-c2ccc(NC(=O)Cn3nc(-c4ccc(F)cc4)c(-c4ccncc4)c3C)cc2)oc1C	87
CCN(CC)CCN(CCN(CC)CC)C(=O)Cn1nc(-c2ccc(F)cc2)c(-c2ccncc2)c1C	47
CSc1ccccc1NC(=O)Cn1nc(-c2ccc(F)cc2)c(-c2ccncc2)c1C	82
O=C(NCCCc1[nH]nc(-c2ccc(F)cc2)c1-c1ccncc1)c1ccc(I)cc1	66
O=S(=O)(NCc1[nH]nc(-c2ccc(F)cc2)c1-c1ccncc1)c1cc(Br)c(Br)s1	77
Cc1c(-c2ccncc2)c(-c2ccc(F)cc2)nn1CC(=O)Nc1ccccc1C(=O)NC1CCCCC1	87
CC(C)S(=O)(=O)NCCCc1[nH]nc(-c2ccc(F)cc2)c1-c1ccncc1	84
CCCCS(=O)(=O)NCCCc1[nH]nc(-c2ccc(F)cc2)c1-c1ccncc1	87
Cc1c(-c2ccncc2)c(-c2ccc(F)cc2)nn1CC(=O)Nc1ccccc1C(C)(C)C	84

SMILES	inhibition [%]
CCS(=O)(=O)NCCCc1[nH]nc(-c2ccc(F)cc2)c1-c1ccncc1	95
CC(=O)OC(C)(C)C(=O)NCCCc1[nH]nc(-c2ccc(F)cc2)c1-c1ccncc1	74
CC(C)NC(=O)NCCCc1[nH]nc(-c2ccc(F)cc2)c1-c1ccncc1	81
Cc1c(-c2ccncc2)c(-c2ccc(F)cc2)nn1CC(=O)N1CCCC1	73
O=C(NCCCc1[nH]nc(-c2ccc(F)cc2)c1-c1ccncc1)c1ccncc1	77
CCCCCCCOc1ccc(NC(=O)Cn2nc(-c3ccc(F)cc3)c(-c3ccncc3)c2C)cc1	89
Cc1c(-c2ccncc2)c(-c2ccc(F)cc2)nn1CC(=O)Nc1ccccc1C(F)(F)F	86
CCN1CCN(C(=O)Cn2nc(-c3ccc(F)cc3)c(-c3ccncc3)c2C)CC1	65
CCOC(=O)CN(Cc1ccccn1)C(=O)Cn1nc(-c2ccc(F)cc2)c(-c2ccncc2)c1C	34
Cc1c(-c2ccncc2)c(-c2ccc(F)cc2)nn1CC(=O)Nc1cccc(SC(F)(F)F)c1	82
Cc1c(-c2ccncc2)c(-c2ccc(F)cc2)nn1CC(=O)N1Cc2ccsc2CC1c1ccc(Cl)cc1 (stereo unspecified)	33
O=S(=O)(NCCCc1[nH]nc(-c2ccc(F)cc2)c1-c1ccncc1)c1cccs1	84
Cc1c(-c2ccncc2)c(-c2ccc(F)cc2)nn1CC(=O)NC1CCSc2ccccc21 (stereo unspecified)	76
COC(=O)[C@@H](Cc1cn(C)cn1)NC(=O)Cn1nc(-c2ccc(F)cc2)c(-c2ccncc2)c1C	19
CCCS(=O)(=O)NCCCc1[nH]nc(-c2ccc(F)cc2)c1-c1ccncc1	92
COCC(=O)NCCCc1[nH]nc(-c2ccc(F)cc2)c1-c1ccncc1	78
Cc1c(-c2ccncc2)c(-c2ccc(F)cc2)nn1CC(=O)N(C)CCc1ccncc1	38
Cc1c(-c2ccncc2)c(-c2ccc(F)cc2)nn1CC(=O)Nc1ccccc1C(=O)NC(C)c1ccccc1 (stereo unspecified)	86
O=C(NCCCc1[nH]nc(-c2ccc(F)cc2)c1-c1ccncc1)c1ccccc1	78
